{"source": "paper PMC7337102", "about": "(ACS infectious diseases, 2019)", "format_in_all_cases": "biochemical", "key": {"[1]": {"target": "Eis_F84A (Mycobacterium tuberculosis, UniProt P9WFK7, F84A)"}, "[2]": {"target": "Eis_D26A (Mycobacterium tuberculosis, UniProt P9WFK7, D26A)"}, "[3]": {"target": "Eis_M65A (Mycobacterium tuberculosis, UniProt P9WFK7, M65A)"}, "[4]": {"target": "Eis_S83G (Mycobacterium tuberculosis, UniProt P9WFK7, S83G)"}, "[5]": {"target": "Eis_R37A (Mycobacterium tuberculosis, UniProt P9WFK7, R37A)"}, "[6]": {"target": "Eis_R37G (Mycobacterium tuberculosis, UniProt P9WFK7, R37G)"}, "[7]": {"target": "Eis_W36R (Mycobacterium tuberculosis, UniProt P9WFK7, W36R)"}, "[8]": {"target": "Eis_L63A (Mycobacterium tuberculosis, UniProt P9WFK7, L63A)"}, "[9]": {"target": "Eis_W36A (Mycobacterium tuberculosis, UniProt P9WFK7, W36A)"}}, "data": [{"smiles": "NC[C@H]1O[C@H](O[C@H]2[C@H](O)[C@@H](O[C@H]3O[C@H](CO)[C@@H](O)[C@H](N)[C@H]3O)[C@H](N)C[C@@H]2N)[C@H](O)[C@@H](O)[C@@H]1O", "note": "[KAN, kanamycin]", "values": [{"measurement": "Km", "setting": "[1]", "result": "569 ± 94", "unit": "µM"}, {"measurement": "kcat", "setting": "[1]", "result": "8.5 ± 0.7", "unit": "min⁻¹"}, {"measurement": "Km", "setting": "[2]", "result": "1.28 ± 0.36", "unit": "mM"}, {"measurement": "increase in the Km value of KAN from that for the wild-type enzyme", "setting": "[2]", "result": 2.3, "unit": "fold"}, {"measurement": "kcat", "setting": "[2]", "result": "14.1 ± 2.5", "unit": "min⁻¹"}, {"measurement": "Km", "setting": "[3]", "result": "247 ± 19", "unit": "µM"}, {"measurement": "increase in the catalytic efficiency from that of the wild-type enzyme", "setting": "[3]", "result": 4.6, "unit": "fold"}, {"measurement": "kcat", "setting": "[3]", "result": "29.7 ± 0.9", "unit": "min⁻¹"}, {"measurement": "maximum turnover rate, fold higher", "setting": "[3]", "result": 2, "unit": "fold"}, {"measurement": "Km", "setting": "[4]", "result": "432 ± 48", "unit": "µM"}, {"measurement": "increase in the catalytic efficiency of the enzyme", "setting": "[4]", "result": 2, "unit": "fold"}, {"measurement": "kcat", "setting": "[4]", "result": "21.9 ± 0.8", "unit": "min⁻¹"}, {"measurement": "Km", "setting": "[5]", "result": "971 ± 166", "unit": "µM"}, {"measurement": "kcat", "setting": "[5]", "result": "9.5 ± 0.3", "unit": "min⁻¹"}, {"measurement": "Km", "setting": "[6]", "result": "696 ± 44", "unit": "µM"}, {"measurement": "kcat", "setting": "[6]", "result": "12.9 ± 0.1", "unit": "min⁻¹"}, {"measurement": "Km", "setting": "[7]", "result": "352 ± 77", "unit": "µM"}, {"measurement": "decrease in the maximum turnover rate", "setting": "[7]", "result": 3.3, "unit": "fold"}, {"measurement": "increase of the binding affinity to KAN", "setting": "[7]", "result": 1.6, "unit": "fold"}, {"measurement": "kcat", "setting": "[7]", "result": "4.4 ± 0.4", "unit": "min⁻¹"}, {"measurement": "Km", "setting": "[8]", "result": "484 ± 93", "unit": "µM"}, {"measurement": "kcat", "setting": "[8]", "result": "19.4 ± 1.5", "unit": "min⁻¹"}, {"measurement": "Km", "setting": "[9]", "result": "556 ± 148", "unit": "µM"}, {"measurement": "kcat", "setting": "[9]", "result": "8.3 ± 1.0", "unit": "min⁻¹"}]}]}
